For 36 compounds, IC50 results are on record in patent US20250353841A1 (BIOGEN MA INC., priority 2022, published 2025).

For the test, the system named is mutant Huntington (HTT) protein. The test is described as follows: HTT Mutant HTRF iPSC assay (mHTT protein lowering). In kind it is cell-based. The following applies: human iPSC derived from a HTT patient with a poly-Q49 mutation. For orientation: In TR-FRET formats the signal depends on donor and acceptor labels being close together.

As to `Cc1cn2cc(-c3cc(F)c4[nH]c(C5CCNCC5)nc4c3)cc(F)c2n1` [Compound 143, 7-fluoro-5-(8-fluoro-2-methylimidazo[1,2-a]pyridin-6-yl)-2-(piperidin-4-yl)-1H-benzo[d]imidazole], the IC50 was 1 to 9 µM.

In turn, `CCc1cc(-c2cc(F)c3nc(C4CCNCC4)cn3c2)nn2cc(C)nc12` [Compound 197, 8-ethyl-6-(8-fluoro-2-(piperidin-4-yl)imidazo[1,2-a]pyridin-6-yl)-2-methylimidazo[1,2-b]pyridazine] displayed a half-maximal inhibitory concentration (IC50) of less than 0.1 µM.

The compound `Cc1cn2nc(-c3cc(F)c4nc(NC(=O)C5CC6(CCNC6)C5)cn4c3)cc(C)c2n1` (stereo not drawn) [Compound 252, N-(6-(2,8-dimethylimidazo[1,2-b]pyridazin-6-yl)-8-fluoroimidazo[1,2-a]pyridin-2-yl)-6-azaspiro[3.4]octane-2-carboxamide] registered an IC50 of 0.1 to 1 µM.

As for `Cc1cn2nc(-c3cc(F)c4nn(C5CCNCC5)nc4c3)cc(C(F)F)c2n1` [Compound 374, 6-[8-(difluoromethyl)-2-methyl-imidazo[1,2-b]pyridazin-6-yl]-4-fluoro-2-(4-piperidyl)benzotriazole], the IC50 was less than 0.1 µM.

Consider `Cc1cn2nc(-c3cc(F)c4nc(NC(=O)C5CCNC6(CC6)C5)nn4c3)cc(C)c2n1` (racemic) [Compound 330, N-(6-(2,8-dimethylimidazo[1,2-b]pyridazin-6-yl)-8-fluoro-[1,2,4]triazolo[1,5-a]pyridin-2-yl)-4-azaspiro[2.5]octane-7-carboxamide], for which the IC50 lay in the range of 0.1 to 1 µM.

Turning to `Cc1cn2nc(-c3cc(F)c4nc(C5CCNCC5)c(Cl)n4c3)ccc2n1` [Compound 126, 6-[3-chloro-8-fluoro-2-(4-piperidyl)imidazo[1,2-a]pyridin-6-yl]-2-methyl-imidazo[1,2-b]pyridazine], the half-maximal inhibitory concentration (IC50) was less than 0.1 µM.

`Cc1cn2nc(-c3cc(F)c4nc(C5CCN(C)CC5)cn4c3)cc(C(F)F)c2n1` [Compound 166, 8-(difluoromethyl)-6-(8-fluoro-2-(1-methylpiperidin-4-yl)imidazo[1,2-a]pyridin-6-yl)-2-methylimidazo[1,2-b]pyridazine] displayed an IC50 of less than 0.1 µM.

For `Cc1cn2nc(-c3cc(F)c4nc(N5CCC(N6CCC6)CC5)oc4c3)cc(C)c2n1` [Compound 494, 2-(4-(azetidin-1-yl)piperidin-1-yl)-6-(2,8-dimethylimidazo[1,2-b]pyridazin-6-yl)-4-fluorobenzo[d]oxazole], the half-maximal inhibitory concentration (IC50) is 0.1 to 1 µM.

The compound `Cc1cc(-c2cc(F)c3nc(C4CCN(C5CC5)CC4)cn3c2)nc2cn(C)nc12` [Compound 171, 5-(2-(1-cyclopropylpiperidin-4-yl)-8-fluoroimidazo[1,2-a]pyridin-6-yl)-2,7-dimethyl-2H-pyrazolo[4,3-b]pyridine] showed an IC50 of less than 0.1 µM.

The compound `Cc1cn2nc(-c3cc(F)c4nn([C@H]5[C@@H]6CN(CC7CC7)C[C@@H]65)cc4c3)cc(C)c2n1` [Compound 367, 6-[2-[(1R,5S)-3-(cyclopropylmethyl)-3-azabicyclo[3.1.0]hexan-6-yl]-7-fluoro-indazol-5-yl]-2,8-dimethyl-imidazo[1,2-b]pyridazine] returned a half-inhibitory concentration (IC50) of 0.1 to 1 µM.

Compound `CCN1CCC(c2nc3c(F)cc(-c4cc(C)c5nc(C)cn5n4)cn3n2)CC1` [Compound 435, 6-(2,8-dimethylimidazo[1,2-b]pyridazin-6-yl)-2-(1-ethylpiperidin-4-yl)-8-fluoro-[1,2,4]triazolo[1,5-a]pyridine] had a half-maximal inhibitory concentration (IC50) of 0.1 to 1 µM.

Turning to `COCCN1CCC(c2nc3c(F)cc(-c4cc(C)c5nc(C)cn5n4)cn3n2)CC1` [Compound 439, 6-(2,8-dimethylimidazo[1,2-b]pyridazin-6-yl)-8-fluoro-2-[1-(2-methoxyethyl)-4-piperidyl]-[1,2,4]triazolo[1,5-a]pyridine], the IC50 fell in the range of 0.1 to 1 µM.

In turn, `Cc1cn2nc(-c3cn4cc(C5CC6CCC(C5)N6)cc(F)c4n3)cc(C)c2n1` (stereo not drawn) [Compound 130] registered a 50% inhibitory concentration (IC50) of 1 to 9 µM.

Compound `Cn1ncc2cc(-c3cc(F)c4nc(C5CCNCC5)cn4c3)cc(F)c21` [Compound 104, 7-fluoro-5-(8-fluoro-2-(piperidin-4-yl)imidazo[1,2-a]pyridin-6-yl)-1-methyl-1H-indazole] registered a 50% inhibitory concentration (IC50) of 1 to 9 µM.

In turn, `Cn1nc2cc(-c3cc(F)c4[nH]c(C5CCNCC5)nc4c3)cc(F)c2n1` [Compound 148, 4-fluoro-6-(7-fluoro-2-(piperidin-4-yl)-1H-benzo[d]imidazol-5-yl)-2-methyl-2H-benzo[d][1,2,3]triazole] displayed an IC50 of 0.1 to 1 µM.

With `Cn1cc2c(F)cc(-c3cc(F)c4nc(C5CCNCC5)cn4c3)cc2n1` [Compound 86, 4-fluoro-6-(8-fluoro-2-(piperidin-4-yl)imidazo[1,2-a]pyridin-6-yl)-2-methyl-2H-indazole], the IC50 fell in the range of 1 to 9 µM.

In turn, `Cc1cn2nc(-c3cc(F)c4nc([C@H]5C[C@]6(CCN(C)C6)C5)cn4c3)cc(C)c2n1` [Compound 203, 6-(8-fluoro-2-((2s,4s)-6-methyl-6-azaspiro[3.4]octan-2-yl)imidazo[1,2-a]pyridin-6-yl)-2,8-dimethylimidazo[1,2-b]pyridazine] gave an IC50 of less than 0.1 µM.

On to `Cn1cc2cc(-c3cc(F)c4[nH]c(C5CCNCC5)nc4c3)cc(F)c2n1` [Compound 141, 7-fluoro-5-(7-fluoro-2-(piperidin-4-yl)-1H-benzo[d]imidazol-5-yl)-2-methyl-2H-indazole], for which the half-inhibitory concentration (IC50) lay within 1 to 9 µM.

`Cc1cn2nc(-c3cc(F)c4nc(NC(=O)C5CCCN(C)C5)nn4c3)cc(C)c2n1` (single isomer, unassigned) [Compound 325] gave a half-maximal inhibitory concentration (IC50) of 0.1 to 1 µM.

Consider `COc1cc(-c2cc(F)c3nn(C)cc3c2)cc2cn(C3CCNCC3)nc12` [Compound 543, 7-fluoro-7′-methoxy-2-methyl-2′-(piperidin-4-yl)-2H,2′H-5,5′-biindazole], for which the IC50 was in the range of 1 to 9 µM.

Regarding `CN1CC2(c3cn4cc(-c5cc(F)c6nn(C)cc6c5)cc(F)c4n3)CC1C2` [Compound 66, 7-fluoro-5-[8-fluoro-2-(2-methyl-2-azabicyclo[2.1.1]hexan-4-yl)imidazo[1,2-a]pyridin-6-yl]-2-methyl-indazole], the IC50 is 1 to 9 µM.

`COc1cc(-c2cc(F)c3nc(C4CCNCC4)cn3c2)cn2cc(C)nc12` [Compound 89, 8-fluoro-8′-methoxy-2′-methyl-2-(piperidin-4-yl)-6,6′-biimidazo[1,2-a]pyridine] gave an IC50 of 0.1 to 1 µM.

For `Cc1cn2nc(-c3cc(F)c4nc(NC(=O)C5CCCNC5)nn4c3)cc(C)c2n1` (single isomer, unassigned) [Compound 316], the IC50 fell in the range of 0.1 to 1 µM.

As to `Cc1cn2nc(-c3cc(F)c4nc(NC(=O)C5CCN(C)CC5)nn4c3)cc(C)c2n1` [Compound 317, N-(6-(2,8-dimethylimidazo[1,2-b]pyridazin-6-yl)-8-fluoro-[1,2,4]triazolo[1,5-a]pyridin-2-yl)-1-methylpiperidine-4-carboxamide], the IC50 was in the range of 0.1 to 1 µM.

`Cc1cc(-c2cc(F)c3nc(C4CCNCC4)cn3c2)cc2cn(C)nc12` [Compound 94, 5-(8-fluoro-2-(piperidin-4-yl)imidazo[1,2-a]pyridin-6-yl)-2,7-dimethyl-2H-indazole] had a half-maximal inhibitory concentration (IC50) of 0.1 to 1 µM.

Consider `Cc1nc2c(C)cc(-c3cc(F)c4nc(N5CCC(N(C)C)CC5)oc4c3)nn2n1` [Compound 496, 1-(6-(2,8-dimethyl-[1,2,4]triazolo[1,5-b]pyridazin-6-yl)-4-fluorobenzo[d]oxazol-2-yl)-N,N-dimethylpiperidin-4-amine], for which the 50% inhibitory concentration (IC50) is 0.1 to 1 µM.

`Cc1cn2nc(-c3cc(F)c4nc(C5CCN(CC(F)F)CC5)cn4c3)cc(C)c2n1` [Compound 174, 6-(2-(1-(2,2-difluoroethyl)piperidin-4-yl)-8-fluoroimidazo[1,2-a]pyridin-6-yl)-2,8-dimethylimidazo[1,2-b]pyridazine] returned an IC50 of 0.1 to 1 µM.

Turning to `CNC12COC(c3cn4cc(-c5cc(F)c6nn(C)cc6c5)cc(F)c4n3)(C1)C2` [Compound 79, 1-[8-fluoro-6-(7-fluoro-2-methyl-indazol-5-yl)imidazo[1,2-a]pyridin-2-yl]-N-methyl-2-oxabicyclo[2.1.1]hexan-4-amine], the concentration for half-maximal inhibition (IC50) lay in the range of 0.1 to 1 µM.

Turning to `CCN1CCC(N(C)c2nc3c(F)cc(-c4cc(C)c5nc(C)cn5n4)cc3o2)CC1` [Compound 502, 6-(2,8-dimethylimidazo[1,2-b]pyridazin-6-yl)-N-(1-ethylpiperidin-4-yl)-4-fluoro-N-methylbenzo[d]oxazol-2-amine], the IC50 was less than 0.1 µM.

As for `Cn1cc2cc(-c3cc(F)c4nc(C56CCC(N)(C5)C6)cn4c3)cc(F)c2n1` [Compound 72, 4-(8-fluoro-6-(7-fluoro-2-methyl-2H-indazol-5-yl)imidazo[1,2-a]pyridin-2-yl)bicyclo[2.1.1]hexan-1-amine], the IC50 lay within 1 to 9 µM.

Turning to `Cc1cn2nc(-c3cc(F)c4nc([C@@H]5CCNC5)cn4c3)cc(C)c2n1` (single isomer, unassigned) [Compound 189], the IC50 is less than 0.1 µM.

Consider `CCN1CCC(N(C)c2nc3cc(-c4cc(C)c5nc(C)cn5n4)cc(F)c3o2)CC1C` [Compound 533, rel-5-(2,8-dimethylimidazo[1,2-b]pyridazin-6-yl)-N-((2S,4S)-1-ethyl-2-methylpiperidin-4-yl)-7-fluoro-N-methylbenzo[d]oxazol-2-amine], for which the half-maximal inhibitory concentration (IC50) was 1 to 9 µM.

`Cc1cn2nc(-c3cc(F)c4nc(C5CCN(C6CCOC6)CC5)cn4c3)cc(C)c2n1` (stereo not drawn) [Compound 192, 6-(8-fluoro-2-(1-(tetrahydrofuran-3-yl)piperidin-4-yl)imidazo[1,2-a]pyridin-6-yl)-2,8-dimethylimidazo[1,2-b]pyridazine] had an IC50 of less than 0.1 µM.

On to `Cc1cc(-c2cc(F)c3nc(C4CCNCC4)cn3c2)ccc1C#N` [Compound 38, 4-(8-fluoro-2-(piperidin-4-yl)imidazo[1,2-a]pyridin-6-yl)-2-methylbenzonitrile], for which the 50% inhibitory concentration (IC50) lay in the range of 1 to 9 µM.

On to `Cn1cc2cc(-c3cc(F)c4nc(C5CCNCC5)cn4c3)ccc2n1` [Compound 11, 5-(8-fluoro-2-(piperidin-4-yl)imidazo[1,2-a]pyridin-6-yl)-2-methyl-2H-indazole], for which the IC50 was in the range of 0.1 to 1 µM.

With `Fc1cc(-c2ncc3cccn3n2)cn2cc(C3CCNCC3)nc12` [Compound 198, 2-(8-fluoro-2-(piperidin-4-yl)imidazo[1,2-a]pyridin-6-yl)pyrrolo[2,1-f][1,2,4]triazine], the IC50 fell in the range of 0.1 to 1 µM.

What is called IC50 is the point on the concentration scale where inhibition reaches its midpoint.
